These results are taken from patent publication US20150152395A1, “CHIMERIC LUCIFERASES” (Connecticut College, priority 2012, published 2015).

Test in all cases: Steady-state kinetic constants, bioluminescence activity
The target in experiment [1] is T1, Photinus pyralis luciferase variant Ppy GR-TS (Photinus pyralis, UniProt P08659, A215L/E354K/F250S/F295L/G246A/I232A/T214A/V241I).
T1 construct: N-terminal GPLGS; pGEX-6P-2 GST fusion (tag cleaved), E. coli BL21
The class given is biochemical.

Experiment [2] deals with T2, Photinus pyralis luciferase variant Ppy RE-TS5/I351V, PpyRE-TS (SEQ ID NO: 24) with Ile457Val/Ala482Gly/His489Lys/Ala503Asn/Lys543Gln/Ile351Val, SEQ ID NO: 14 (Photinus pyralis, UniProt P08659, A215L/A482G/A503N/E354K/F295L/H489K/I232A/I351V/I457V/K543Q/S284T/T214A).
T2 construct: N-terminal GPLGS; pGEX-6P-2 GST fusion (tag cleaved), E. coli BL21
T2 sequence (P08659 whole entry T214A/A215L/I232A/S284T/F295L/I351V/E354K/I457V/A482G/H489K/A503N/K543Q, the tested form may be a part): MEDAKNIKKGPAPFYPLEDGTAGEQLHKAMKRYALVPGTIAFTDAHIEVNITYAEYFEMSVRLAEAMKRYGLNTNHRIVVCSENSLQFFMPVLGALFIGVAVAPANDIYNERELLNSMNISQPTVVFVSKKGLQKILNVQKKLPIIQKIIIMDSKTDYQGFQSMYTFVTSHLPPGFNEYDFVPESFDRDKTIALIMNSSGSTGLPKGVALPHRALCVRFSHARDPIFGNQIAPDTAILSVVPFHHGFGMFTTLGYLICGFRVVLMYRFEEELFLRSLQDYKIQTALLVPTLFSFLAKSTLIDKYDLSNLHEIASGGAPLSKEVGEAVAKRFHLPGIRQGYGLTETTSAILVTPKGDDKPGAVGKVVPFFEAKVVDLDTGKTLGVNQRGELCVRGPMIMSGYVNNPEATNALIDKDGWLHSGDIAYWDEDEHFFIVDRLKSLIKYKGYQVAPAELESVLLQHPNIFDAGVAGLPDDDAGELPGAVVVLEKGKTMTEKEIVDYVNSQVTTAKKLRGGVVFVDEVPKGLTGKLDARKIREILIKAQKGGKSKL
The class given is biochemical.

For experiment [3], the target named is T3, Photinus pyralis luciferase variant Ppy RE13, Ppy RE9 (SEQ ID NO: 20) with Ile457Val/Arg465Phe/Ala482Gly/His489Lys/Ala503Asn/Lys543Gln, SEQ ID NO: 16 (Photinus pyralis, UniProt P08659, A215L/A482G/A503N/E354I/F295L/H489K/I232A/I351V/I457V/K543Q/R330G/S284T/T214A).
T3 construct: N-terminal GPLGS; pGEX-6P-2 GST fusion (tag cleaved), E. coli BL21
T3 sequence (P08659 whole entry T214A/A215L/I232A/S284T/F295L/R330G/I351V/E354I/I457V/A482G/H489K/A503N/K543Q, the tested form may be a part): as the sequence (P08659 whole entry T214A/A215L/I232A/S284T/F295L/I351V/E354K/I457V/A482G/H489K/A503N/K543Q, the tested form may be a part) above, with R330G, K354I counted along it
The class given is biochemical.

In experiment [4] the test system is PpyLit (chimeric luciferase, SEQ ID NO: 8) variant I232A/E354K. The class given is biochemical, Photinus pyralis / Luciola italica. The procedure: (§1) Reactions were initiated by injection of solutions of the substrate being maintained at saturating concentration. Kinetic constants were determined using a nonlinear least squares method of the Enzyme Kinetics Pro software (SynTex), which fits data from the Michalis-Menten equation to a rectangular hyperbola. The corresponding kcat values were obtained by dividing the Vmax values by the amount (μmol) of each luciferase in the assay mixtures.

Experiment [5] concerns PpyLit (chimeric luciferase, SEQ ID NO: 8) variant I232A/I351V/E354K. The class given is biochemical, Photinus pyralis / Luciola italica. The procedure:
as §1

In experiment [6] the test system is PpyLit, chimeric luciferase of PpyWT residues 1-439 and LitWT residues 440-550, SEQ ID NO: 8. The class given is biochemical, Photinus pyralis / Luciola italica. The procedure:
as §1

Experiment [7] concerns PpyLit (chimeric luciferase, SEQ ID NO: 8) variant F465R. The class given is biochemical, Photinus pyralis / Luciola italica. How it is done: as §1
Setting [8] is: read-out: Km Mg-ATP, pH 7.8, LH2 saturating.
Setting [9] is: pH 7.8, LH2 saturating, read-out: Km Mg-ATP.

T1 sequence (P08659 whole entry T214A/A215L/I232A/V241I/G246A/F250S/F295L/E354K, the tested form may be a part): as the sequence (P08659 whole entry T214A/A215L/I232A/S284T/F295L/I351V/E354K/I457V/A482G/H489K/A503N/K543Q, the tested form may be a part) above, with V241I, G246A, F250S, T284S, V351I, V457I, G482A, K489H, N503A, Q543K counted along it

What is called kcat/Km is the turnover number divided by the Michaelis constant. What is called Km is the concentration of substrate that gives half-maximal velocity. On to `Nc1ncnc2c1ncn2[C@@H]1O[C@H](COP(=O)(O)OP(=O)(O)OP(=O)(O)O)[C@@H](O)[C@H]1O` [Mg-ATP], for which the kcat/Km was found to be 500 ± 100 M⁻¹ s⁻¹ in experiment [1] (kcat divided by Mg-ATP Km); 1290 ± 140 M⁻¹ s⁻¹ in experiment [2] (kcat divided by Mg-ATP Km); 380 ± 100 M⁻¹ s⁻¹ in experiment [3] (kcat divided by Mg-ATP Km); 3290 ± 100 M⁻¹ s⁻¹ in experiment [4] (kcat divided by Mg-ATP Km); 1860 ± 120 M⁻¹ s⁻¹ in experiment [5] (kcat divided by Mg-ATP Km); 6040 ± 120 M⁻¹ s⁻¹ in experiment [6] (kcat divided by Mg-ATP Km). Also, in experiment [7] (kcat divided by Mg-ATP Km), the catalytic efficiency (kcat/Km) amounted to 3430 ± 100 M⁻¹ s⁻¹. Moreover, the Km in experiment [1] (setting [8]) was 163 ± 16 µM; in experiment [2] (setting [8]) it was 93 ± 19 µM; in experiment [3] (setting [8]), 289 ± 20 µM; in experiment [4] (setting [9]), 76 ± 4 µM; in experiment [5] (setting [9]), 129 ± 14 µM; in experiment [6] (setting [9]), 53 ± 5 µM. Besides, in experiment [7] (setting [9]), the Km came out at 99 ± 6 µM. Besides, the “enhanced catalytic efficiency (kcat/Km ATP)” value in experiment [6] (compared to PpyWT) is 2.9 fold.
